Assay results reported in ChEMBL document CHEMBL1135957, “Novel 1',1'-chain substituted Delta(8)-tetrahydrocannabinols” (Bioorg Med Chem Lett, 2002).
pKi: −log10 of the molar value.

Key:
[1] = target: Cannabinoid receptor 2 (Mus musculus, UniProt P47936); experiment: Binding affinity for Cannabinoid receptor 2 by the ability to displace radiolabeled CP-55940 from mouse spleen synaptosomes; type: subcellular
[2] = target: Cannabinoid receptor 1 (Rattus norvegicus, UniProt P20272); experiment: Binding affinity for Cannabinoid receptor 1 by the ability to displace radiolabeled CP-55940 from purified rat forebrain synaptosomes; type: subcellular, Brain
Sequence of Cannabinoid receptor 1 (P20272 whole entry): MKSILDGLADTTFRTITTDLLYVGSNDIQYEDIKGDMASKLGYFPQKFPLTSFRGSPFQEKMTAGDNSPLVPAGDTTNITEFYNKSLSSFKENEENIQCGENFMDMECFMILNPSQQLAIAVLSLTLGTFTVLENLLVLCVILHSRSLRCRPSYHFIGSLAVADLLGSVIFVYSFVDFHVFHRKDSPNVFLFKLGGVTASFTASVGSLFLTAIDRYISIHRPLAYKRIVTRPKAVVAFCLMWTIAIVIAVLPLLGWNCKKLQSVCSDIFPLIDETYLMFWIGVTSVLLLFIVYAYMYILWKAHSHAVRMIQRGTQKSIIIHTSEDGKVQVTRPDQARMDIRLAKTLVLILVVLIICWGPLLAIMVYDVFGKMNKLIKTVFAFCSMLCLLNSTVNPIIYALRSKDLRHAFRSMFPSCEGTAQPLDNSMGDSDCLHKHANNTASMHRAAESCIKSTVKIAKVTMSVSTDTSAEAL

Sequence of Cannabinoid receptor 2 (P47936 whole entry): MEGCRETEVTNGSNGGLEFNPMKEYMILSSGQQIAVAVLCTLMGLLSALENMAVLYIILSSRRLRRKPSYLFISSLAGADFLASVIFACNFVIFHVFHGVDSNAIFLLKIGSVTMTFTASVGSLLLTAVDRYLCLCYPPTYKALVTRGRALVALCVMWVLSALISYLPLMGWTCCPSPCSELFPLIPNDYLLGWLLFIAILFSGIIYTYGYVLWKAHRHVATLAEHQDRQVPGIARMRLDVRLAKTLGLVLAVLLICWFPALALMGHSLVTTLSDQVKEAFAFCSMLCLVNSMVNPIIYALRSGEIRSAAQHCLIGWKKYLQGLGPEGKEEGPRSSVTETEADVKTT

SMILES	pKi [1]	pKi [2]
CCCCCCC(C)(C)c1cc(O)c2c(c1)OC(C)(C)[C@@H]1CC=C(C)C[C@@H]21	9.31	9.08
C=C(C)[C@@H]1CCC(C)=C[C@H]1c1c(O)cc(CCCCC)cc1O [CANNABIDIOL]	6.64	
C=C(C)C1CCC(C)=CC1c1c(O)cc(C2(CCCCCC)CC2)cc1O (configuration not stated)	7.00	7.23
CCCCCCC1(c2cc(O)c3c(c2)OC(C)(C)[C@@H]2CC=C(C)C[C@@H]32)CC1(Cl)Cl (some centres not stated)	9.54	8.90
CCCCCCC1(c2cc(O)c3c(c2)OC(C)(C)[C@@H]2CC=C(C)C[C@@H]32)CC1	9.07	9.36
C=C(C)C1CCC(C)=CC1c1c(O)cc(C2(CCCCCC)CC2(Cl)Cl)cc1O (configuration not stated)	7.48	6.18
C=C(C)C1CCC(C)=CC1c1c(O)cc(C2(CCCCCC)SCCS2)cc1O (configuration not stated)	7.30	6.87
C=C(C)C1CCC(C)=CC1c1c(O)cc(C2(CCCCCC)CC2(Br)Br)cc1O (configuration not stated)	7.20	6.72
CCCCCCC1(c2cc(O)c3c(c2)OC(C)(C)[C@@H]2CC=C(C)C[C@@H]32)CC1(Br)Br (some centres not stated)	9.00	9.15
